{
  "source": "patent US9827177B2",
  "about": "“Antiperspirant products with protein and antiperspirant salts” (Colgate-Palmolive Company, priority 2012, dated 2017)",
  "key": {"[1]": {"assay": "Hydrolysis reaction: turbidity and pH of diluted ZLC solutions before and after aging", "format": "physicochemical", "settings": "for pH after aging / turbidity after aging (NTU): aged 37° C. over 5 hours; for initial turbidity (NTU): before aging", "protocol": "Hydrolysis reaction: A 185 mg/ml ZLC solution is prepared and diluted several-fold and aged in a 37° C. oven over 5 hours for turbidity studies. […] Turbidity of the solutions is measured using a nephelometer, results being given in nephelometric turbidity units (NTU).\nThe precipitates formed in the 8×, 16× and 32× diluted solutions are collected by centrifugation and identified as crystalline ZnO by PXRD. From the supernatant, a single crystal is grown and shown by X-ray diffraction to be Lysine Monohydrochloride Dihydrate (Lysine.HCl.2H2O)."}, "[2]": {"tested_on": "bacterial lawn on TSA plates", "assay": "Zone of inhibition test", "format": "cell-based", "settings": "20 μl on filter paper discs, 20 hours at 37° C.; compared with zinc oxide and lysine hydrochloride", "protocol": "A zone of inhibition test is conducted on several materials: zinc oxide, lysine hydrochloride, and ZLC. The method involves making a lawn of freshly prepared bacterial culture on TSA (trypticase soy agar) plates. Sterile filter paper discs are seeded with 20 μl of test sample (supernatant or mixture). Sample-coated filter paper discs are air dried and applied onto the bacterial lawn on TSA plates. Plates are incubated for 20 hours at 37° C."}, "[3]": {"assay": "Precipitation of ZLC-BSA mixture solutions at adjusted pH", "format": "physicochemical", "settings": "pure solution, pH 3-11", "from_the_text": "The pH of the solutions is adjusted to 3, 4, 5, 6, 7, 8, 9, 10 and 11 to observe the formation of precipitation. Precipitate is formed in all solutions at pH ranging from 3 to 5. […] All solutions appear clear at pH 8. A small amount of precipitation is also found at pH 9 and 10. At pH 11, precipitate is formed in all solutions. […] The formation of precipitation in acid pH requires both ZLC and BSA to be present in solution."}, "[4]": {"target": "T1, Bovine Serum Albumin (BSA) (Bos taurus, UniProt P02769)", "T1 construct": "is a serum albumin protein derived from the blood of cattle; from tissue; host or cells: blood of cattle", "T1 sequence (P02769 25-607)": "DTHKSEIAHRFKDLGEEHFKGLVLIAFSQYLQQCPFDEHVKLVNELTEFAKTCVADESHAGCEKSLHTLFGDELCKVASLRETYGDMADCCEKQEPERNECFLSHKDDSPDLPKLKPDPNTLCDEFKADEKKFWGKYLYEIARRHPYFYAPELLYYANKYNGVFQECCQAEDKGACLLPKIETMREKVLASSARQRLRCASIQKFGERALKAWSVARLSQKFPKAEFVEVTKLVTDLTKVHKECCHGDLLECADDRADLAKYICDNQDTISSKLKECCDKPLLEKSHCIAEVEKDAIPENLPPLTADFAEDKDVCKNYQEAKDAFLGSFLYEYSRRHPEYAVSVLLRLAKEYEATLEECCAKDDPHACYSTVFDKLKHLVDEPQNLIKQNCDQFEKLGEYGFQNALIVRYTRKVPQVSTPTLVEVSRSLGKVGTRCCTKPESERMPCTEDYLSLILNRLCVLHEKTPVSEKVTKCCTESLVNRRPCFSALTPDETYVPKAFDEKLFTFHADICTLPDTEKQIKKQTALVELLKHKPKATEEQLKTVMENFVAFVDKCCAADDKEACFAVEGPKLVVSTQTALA", "assay": "Flocculation of ZLC in the presence of protein (turbidity, pH)", "format": "physicochemical", "settings": "5 hours at 37° C.", "protocol": "Turbidity and pH of solutions are measured 5 hours after the mixtures were placed in a 37° C. oven, and the results are shown in Table 3."}, "[5]": {"settings": "sample 1: DI water, 0% BSA, ZLC about 0.98% w/w or 15 mg/ml"}, "[6]": {"settings": "sample 2: 1% BSA, pH 7.2, ZLC about 0.96% w/w or 15 mg/ml"}, "[7]": {"settings": "sample 3: 1% BSA, pH adjusted to 5.1, ZLC about 0.96% w/w or 15 mg/ml"}},
  "data": [
    {"smiles": "NCCCCC(N)C(=O)O.NCCCCC(N)C(=O)O.O.O.[Cl-].[Cl-].[Zn+2]", "note": "(stereo not drawn) [ZLC, zinc-lysine-HCl complex]", "values": [
      {"measurement": "pH after aging", "setting": "[1]; 5.78 mg/ml ZLC solution", "value": 8},
      {"measurement": "turbidity after aging (NTU)", "setting": "[1]; 5.78 mg/ml ZLC solution", "value": ">1000", "unit": "NTU"},
      {"measurement": "pH after aging", "setting": "[1]; 11.56 mg/ml ZLC solution", "value": 7.8},
      {"measurement": "turbidity after aging (NTU)", "setting": "[1]; 11.56 mg/ml ZLC solution", "value": ">1000", "unit": "NTU"},
      {"measurement": "pH after aging", "setting": "[1]; 23.125 mg/ml ZLC solution", "value": 7.7},
      {"measurement": "initial turbidity (NTU)", "setting": "[1]; 23.125 mg/ml ZLC solution", "value": 0.7, "unit": "NTU"},
      {"measurement": "pH after aging", "setting": "[1]; 46.25 mg/ml ZLC solution", "value": 7.4},
      {"measurement": "turbidity after aging (NTU)", "setting": "[1]; 46.25 mg/ml ZLC solution", "value": 2.8, "unit": "NTU"},
      {"measurement": "initial turbidity (NTU)", "setting": "[1]; 46.25 mg/ml ZLC solution", "value": 1.5, "unit": "NTU"},
      {"measurement": "pH after aging", "setting": "[1]; 92.5 mg/ml ZLC solution", "value": 7},
      {"measurement": "turbidity after aging (NTU)", "setting": "[1]; 92.5 mg/ml ZLC solution", "value": 2.6, "unit": "NTU"},
      {"measurement": "initial turbidity (NTU)", "setting": "[1]; 92.5 mg/ml ZLC solution", "value": 2.8, "unit": "NTU"},
      {"measurement": "observation on dilution of the solution", "setting": "[1]; 185 mg/ml ZLC solution diluted several-fold", "value": "A white precipitate forms as the solution is diluted"},
      {"measurement": "pH after aging", "setting": "[1]; 185 mg/ml ZLC solution", "value": 6.8},
      {"measurement": "turbidity after aging (NTU)", "setting": "[1]; 185 mg/ml ZLC solution", "value": 4.1, "unit": "NTU"},
      {"measurement": "initial turbidity (NTU)", "setting": "[1]; 185 mg/ml ZLC solution", "value": 4.7, "unit": "NTU"},
      {"measurement": "stability of the complex upon dilution", "setting": "[1]; 8×, 16× and 32× diluted solutions, precipitate identified as ZnO by PXRD", "value": "disassociates upon dilution, with consequent precipitation of zinc oxide"},
      {"measurement": "antibacterial activity (zone of inhibition)", "setting": "[2]", "value": "better antibacterial activity than zinc oxide alone or lysine hydrochloride alone"},
      {"measurement": "formation of precipitation", "setting": "[3]", "value": "No precipitation"},
      {"measurement": "observation", "setting": "[4]; [5]", "value": "becomes slightly cloudy"},
      {"measurement": "pH", "setting": "[4]; [5]", "value": 8},
      {"measurement": "Turbidity (NTU)", "setting": "[4]; [6]", "value": ">1000", "unit": "NTU"},
      {"measurement": "observation", "setting": "[4]; [6]", "value": "a lot white precipitate"},
      {"measurement": "pH", "setting": "[4]; [6]", "value": 8.2},
      {"measurement": "Turbidity (NTU)", "setting": "[4]; [7]", "value": ">1000", "unit": "NTU"},
      {"measurement": "observation", "setting": "[4]; [7]", "value": "a lot white precipitate"},
      {"measurement": "pH", "setting": "[4]; [7]", "value": 8}
    ]}
  ]
}
